Tested on: COS-7 cells
Assay: Automated lipofection screening: GFP-luciferase reporter gene transfer (luciferase activity per protein content)
Assay type: cell-based, African green monkey
Conditions: for times higher activity in only one of the helper lipid combinations: best combination against the other combinations; for Maximum transfection efficiency, MW (mean value), Helper lipid: DOPE / Maximum transfection efficiency, MW (mean value), Helper lipid: CHOL / Maximum transfection efficiency, MW (mean value), Helper lipid: without: pEGFPLuc plasmid, point is thousands separator; for Maximum transfection efficiency, MW (mean value), Helper lipid: DOPE: cationic/helper lipid 1:0.5 with DOPE; for Maximum transfection efficiency, MW (mean value), Helper lipid: DOPE / Maximum transfection efficiency, MW (mean value), Helper lipid: CHOL: at the LDR giving the maximum; for Maximum transfection efficiency, MW (mean value), Helper lipid: CHOL: cationic/helper lipid 1:0.5 with cholesterol; for Maximum transfection efficiency, MW (mean value), Helper lipid: without: no helper lipid, at the LDR (1:1-15:1) giving the maximum
Procedure: Screening the combinatorial lipid library for lipofection properties: Goal of this first step was to compare transfection efficiency of these structurally related cationic lipids with systematically modified hydrocarbon chain compositions for the development of suitable lipofection reagents and protocols and to study the relationship between structure and transfection efficiency of this new class of cationic lipids for gene transfer. All lipids (MS-1 to MS-50, table 1) were tested using a standard protocol: From each lipid, twenty four different lipoplexes were formed containing either no helper lipid or the helper lipids DOPE and CHOL at molar amounts (1:0.5), respectively, using eight different lipid:DNA-charge ratios (LDR) from 1:1 - 15:1, resulting in a lipofection profile for each lipid. The COS-7 cell-line was used for this lipofection study since COS-7 is easy to transfect and differences between the lipids are easy to identify.
Cell culture: SV40 transformed African green monkey kidney cell line COS-7 (ATCC CRL-1651) was routinely passaged in DMEM (GIBCO BRL, Karlsruhe, Germany), respectively, supplemented with 1% L-glutamin solution (100x), 1% Penicillin/Streptomycin solution (100x) (GIBCO BRL, Karlsruhe, Germany), and 10% FCS (BioWhittaker, Verviers, Belgium) at 37°C with 5% CO2 in humidified atmosphere. For the screening cells were maintained in 96-well culture plates (Greiner, Frickenhausen, Germany) in 100 µl DMEM, 10 % FCS, 1 % Penicillin-streptomycin in a humidified atmosphere at 37 °C/5 % CO2. 24 h prior to transfection, the cells were seeded into the microtiter plate at 10,000 cells per well to reach a confluency of 50 % at the time of transfection. Dendritic cells: Dendritic cells (DC) were derived from highly purified circulating CD14(+) monocytes: In a first step, peripheral blood mononuclear leukocytes (PBL) from healthy control persons were isolated by Ficoll-Paque (Pharmacia Biotech AB, Uppsala, Sweden) density centrifugation. The following immunomagnetic purification of the monocytes from PBL was performed using CD14 Microbeads and MiniMACS high gradient magnetic separation columns (Miltenyi Biotech, Bergisch Gladbach, Germany) according to manufacturer's instructions. Isolated monocytes (5 x 10^5/well) were cultured in RPMI supplemented with 10 % FCS, or serum-free Macrophage-SFM medium (GIBCO BRL, Karlsruhe, Germany) supplemented with human recombinant GM-CSF (0.05µg/ml) and IL-4 (0.025µg/ml) (PromoCell, Heidelberg, Germany) in 6-well plates. Aliquots of the cells were reanalyzed by FACS with anti-CD14 mAbs (Pharmingen, San Diego, CA). After 5-6 days non-adherent cells were collected and purity of DCs was determined by FACS analysis using a FACSort flow cytometer (Becton Dickinson, Mountain View, CA) and the CellQuest software for data processing as recently described (Jantscheff, P. et al., J. Immunol. Methods 163(1):91-7 (1993)).

Row | SMILES | times higher activity in only one of the helper lipid combinations | Maximum transfection efficiency, MW (mean value), Helper lipid: DOPE [RLU] | Maximum transfection efficiency, MW (mean value), Helper lipid: CHOL [RLU] | Maximum transfection efficiency, MW (mean value), Helper lipid: without [RLU]
1 | CCCCCCCCCCCCCCCC[N+](C)(CCCCCCCCCCCCCCCC)[C@@H](CO)C(=O)NCCN [MS-28] | 2.5 - 11.5 times |  |  | 
2 | CCCCCCCCCCCCCCCCCC[N+](C)(CCCCCCCCCCCCCCCCCC)[C@@H](CO)C(=O)NCCN [MS-29] | 2.5 - 11.5 times |  |  | 
3 | CCCCCCCCCCCCCCCC[N+](C)(CCCCCCCCCCCCCCCC)[C@@H](CO)C(=O)NCCCN [MS-33] | 2.5 - 11.5 times |  |  | 
4 | CCCCCCCCCCCCN(CCCCCCCCCCCC)[C@@H](CO)C(=O)NCCN [compound 1] |  | 172.116 | 264.581 | 211.937
5 | CCCCCCCCCCCCCCN(CCCCCCCCCCCCCC)[C@@H](CO)C(=O)NCCN [compound 2] |  | 73.117 | 297.074 | 362.300
6 | CCCCCCCCCCCCCCCCN(CCCCCCCCCCCCCCCC)[C@@H](CO)C(=O)NCCN [compound 3] |  | 18.255 | 66.096 | 4.049
7 | CCCCCCCCCCCCCCCCCCN(CCCCCCCCCCCCCCCCCC)[C@@H](CO)C(=O)NCCN [compound 4] |  | 4.695 | 131.981 | 2.827
8 | CCCCCCCC/C=C\CCCCCCCCN(CCCCCCCC/C=C\CCCCCCCC)[C@@H](CO)C(=O)NCCN [compound 5] |  | 22.324 | 7.344 | 7.395
9 | CCCCCCCCCCCCN(CCCCCCCCCCCC)[C@@H](CO)C(=O)NCCCN [compound 6] |  | 6.392 | 583 | 944
10 | CCCCCCCCCCCCCCN(CCCCCCCCCCCCCC)[C@@H](CO)C(=O)NCCCN [compound 7] |  | 131.970 | 464.342 | 217.062
11 | CCCCCCCCCCCCCCCCN(CCCCCCCCCCCCCCCC)[C@@H](CO)C(=O)NCCCN [compound 8] |  | 38.086 | 22.428 | 6.244
12 | CCCCCCCCCCCCCCCCCCN(CCCCCCCCCCCCCCCCCC)[C@@H](CO)C(=O)NCCCN [compound 9] |  | 10.033 | 76.850 | 2.183
13 | CCCCCCCC/C=C\CCCCCCCCN(CCCCCCCC/C=C\CCCCCCCC)[C@@H](CO)C(=O)NCCCN [compound 10] |  | 92.769 | 28.835 | 13.461
14 | CCCCCCCCCCCCN(CCCCCCCCCCCC)[C@@H](CO)C(=O)NCCCCN [compound 11] |  | 2.621 | 327 | 293
15 | CCCCCCCCCCCCCCN(CCCCCCCCCCCCCC)[C@@H](CO)C(=O)NCCCCN [compound 12] |  | 167.970 | 274.483 | 440.931
16 | CCCCCCCCCCCCCCCCN(CCCCCCCCCCCCCCCC)[C@@H](CO)C(=O)NCCCCN [compound 13] |  | 30.635 | 42.604 | 15.287
17 | CCCCCCCCCCCCCCCCCCN(CCCCCCCCCCCCCCCCCC)[C@@H](CO)C(=O)NCCCCN [compound 14] |  | 11.715 | 42.270 | 1.956
18 | CCCCCCCC/C=C\CCCCCCCCN(CCCCCCCC/C=C\CCCCCCCC)[C@@H](CO)C(=O)NCCCCN [compound 15] |  | 340.414 | 243.273 | 232.694
19 | CCCCCCCCCCCCN(CCCCCCCCCCCC)[C@@H](CO)C(=O)NCCCCCN [compound 16] |  | 49.071 | 45.849 | 442
20 | CCCCCCCCCCCCCCN(CCCCCCCCCCCCCC)[C@@H](CO)C(=O)NCCCCCN [compound 17] |  | 453.572 | 237.556 | 249.143
21 | CCCCCCCCCCCCCCCCN(CCCCCCCCCCCCCCCC)[C@@H](CO)C(=O)NCCCCCN [compound 18] |  | 26.400 | 42.592 | 22.150
22 | CCCCCCCCCCCCCCCCCCN(CCCCCCCCCCCCCCCCCC)[C@@H](CO)C(=O)NCCCCCN [compound 19] |  | 11.743 | 45.026 | 1.118
23 | CCCCCCCC/C=C\CCCCCCCCN(CCCCCCCC/C=C\CCCCCCCC)[C@@H](CO)C(=O)NCCCCCN [compound 20] |  | 26.482 | 67.308 | 31.897
24 | CCCCCCCCCCCCN(CCCCCCCCCCCC)[C@@H](CO)C(=O)NCCCCCCN [compound 21] |  | 308.849 | 190.171 | 118.131
25 | CCCCCCCCCCCCCCN(CCCCCCCCCCCCCC)[C@@H](CO)C(=O)NCCCCCCN [compound 22] |  | 164.165 | 241.264 | 237.631
26 | CCCCCCCCCCCCCCCCN(CCCCCCCCCCCCCCCC)[C@@H](CO)C(=O)NCCCCCCN [compound 23] |  | 27.118 | 16.398 | 14.969
27 | CCCCCCCCCCCCCCCCCCN(CCCCCCCCCCCCCCCCCC)[C@@H](CO)C(=O)NCCCCCCN [compound 24] |  | 21.009 | 20.328 | 920

— patent EP1457483A1, “Cationic lipids with serine backbone” (Ruhr-Universität Bochum, priority 2003, dated 2004)
